ChEMBL document CHEMBL4811228, “Design, Synthesis, and Activity Evaluation of Novel Acyclic Nucleosides as Potential Anticancer Agents In Vitro and In Vivo” (J Med Chem, 2021)
Active and inactive are the calls of the source. The calls are words filed in the database; no cut-off is given here.

What was measured:
[1] = system: HCT-116; experiment: Induction of apoptosis in human HCT-116 cells incubated for 48 hrs by Annexin V-FITC/PI staining based flow cytometry; assay type: functional, cell-based; conditions: dose 2-32 µM
[2] = system: SW480; experiment: Induction of apoptosis in human SW480 cells assessed as viable cells at 8 uM incubated for 48 hrs by Annexin V-FITC/PI staining based flow cytometry (reference value: 90.56%); assay type: functional; conditions: read-out: Activity
[3] = Acute toxicity in BALB/c mouse assessed as animal survival at 150 mg/kg, ip administered per 4 hrs for 4 times and measured everyday for 14 days (Rb =100%); assay type: organism-based; conditions: in vivo, time 14 day
[4] = system: SW480; experiment: Induction of mitochondrial membrane potential loss in human SW480 cells assessed as cells with low MMP emitting green fluorescence at 4 uM incubated for 24 hrs by JC-1 staining based flow cytometry (reference value: 17.96%); assay type: functional
[5] = system: SW480; experiment: Induction of apoptosis in human SW480 cells assessed as reduction in Bcl-xl protein expression at 2 to 16 uM incubated for 48 hrs by western blot analysis; assay type: functional, cell-based; conditions: dose 2-16 µM
[6] = system: SW480; experiment: Induction of apoptosis in human SW480 cells assessed as late apoptotic cells at 16 uM incubated for 48 hrs by Annexin V-FITC/PI staining based flow cytometry (reference value: 4.67%); assay type: functional
[7] = system: SW480; experiment: Induction of apoptosis in human SW480 cells assessed as late apoptotic cells at 4 uM incubated for 48 hrs by Annexin V-FITC/PI staining based flow cytometry (reference value: 4.67%); assay type: functional
[8] = system: SW480; experiment: Induction of apoptosis in human SW480 cells assessed as viable cells at 4 uM incubated for 48 hrs by Annexin V-FITC/PI staining based flow cytometry (reference value: 90.56%); assay type: functional; conditions: read-out: Activity
[9] = system: SW480; experiment: Inhibition of colony formation in human SW480 cells at >=16 uM incubated for 48 hrs followed by culture medium replenishment for every 72 hrs and measured after 14 days by crystal violet staining based analysis; assay type: functional; conditions: dose microM >=16; time 14 day
[10] = Acute toxicity in BALB/c mouse assessed as animal survival at 250 mg/kg, ip administered per 4 hrs for 4 times and measured everyday for 14 days (reference value: 100%); assay type: organism-based; conditions: in vivo, time 14 day
[11] = system: SW480; experiment: Induction of apoptosis in human SW480 cells assessed as late apoptotic cells at 2 uM incubated for 48 hrs by Annexin V-FITC/PI staining based flow cytometry (reference value: 4.67%); assay type: functional
[12] = system: HCT-116; experiment: Potency index, ratio of 5-FU IC50 to test compound IC50 for antiproliferative activity against human HCT-116 cells; assay type: functional
[13] = system: SW480; experiment: Inhibition of colony formation in human SW480 cells at 2 to 8 uM incubated for 48 hrs followed by culture medium replenishment for every 72 hrs and measured after 14 days by crystal violet staining based analysis; assay type: functional, cell-based; conditions: dose 2-8 µM, time 14.0 day
[14] = system: SW480; experiment: Induction of mitochondrial membrane potential loss in human SW480 cells assessed as cells with low MMP emitting green fluorescence at 2 uM incubated for 24 hrs by JC-1 staining based flow cytometry (reference value: 17.96%); assay type: functional
[15] = system: HCT-116; experiment: Induction of cell cycle arrest in human HCT-116 cells assessed as accumulation at G0/G1 phase at 16 uM incubated for 24 hrs by propidium iodide staining based flow cytometry; assay type: functional
[16] = system: SW480; experiment: Induction of apoptosis in human SW480 cells assessed as early apoptotic cells at 16 uM incubated for 48 hrs by Annexin V-FITC/PI staining based flow cytometry (reference value: 1.87%); assay type: functional
[17] = system: HCT-116; experiment: Inhibition of colony formation in human HCT-116 cells at >=16 uM incubated for 48 hrs followed by culture medium replenishment for every 72 hrs and measured after 14 days by crystal violet staining based analysis; assay type: functional; conditions: dose microM >=16; time 14 day
[18] = system: SW480; experiment: Induction of apoptosis in human SW480 cells at 4 to 8 uM pretreated with pan-caspase inhibitor, Q-VD-OPh followed by incubation with compound for 48 hrs by Annexin V-FITC/PI staining based flow cytometry; assay type: functional, cell-based; conditions: dose 4-8 µM
[19] = system: SW480; experiment: Induction of apoptosis in human SW480 cells assessed as increase in cleaved PARP protein expression at 2 to 16 uM incubated for 48 hrs by western blot analysis; assay type: functional, cell-based; conditions: dose 2-16 µM
[20] = Acute toxicity in BALB/c mouse assessed as animal survival at 300 mg/kg, ip administered per 4 hrs for 4 times and measured everyday for 14 days (reference value: 100%); assay type: organism-based; conditions: in vivo, time 14 day
[21] = Half life in mouse liver microsomes at 0.1 uM preincubated for 10 mins followed by NADPH addition and measured up to 60 mins by LC-MS/MS analysis; assay type: ADME, Microsome; conditions: time 70 min
[22] = Acute toxicity in BALB/c mouse assessed as animal survival at 200 mg/kg, ip administered per 4 hrs for 4 times and measured everyday for 14 days (Rb =100%); assay type: organism-based; conditions: in vivo, time 14 day
[23] = system: SW480; experiment: Induction of mitochondrial membrane potential loss in human SW480 cells assessed as cells with high MMP emitting red fluorescence at 8 uM incubated for 24 hrs by JC-1 staining based flow cytometry (reference value: 64.2%); assay type: functional
[24] = system: SW480; experiment: Induction of apoptosis in human SW480 cells assessed as necrotic cells at 2 uM incubated for 48 hrs by Annexin V-FITC/PI staining based flow cytometry (reference value: 2.9%); assay type: functional
[25] = system: SW480; experiment: Induction of apoptosis in human SW480 cells assessed as necrotic cells at 16 uM incubated for 48 hrs by Annexin V-FITC/PI staining based flow cytometry (reference value: 2.9%); assay type: functional
[26] = system: SW480; experiment: Induction of apoptosis in human SW480 cells assessed as early apoptotic cells at 2 uM incubated for 48 hrs by Annexin V-FITC/PI staining based flow cytometry (reference value: 1.87%); assay type: functional
[27] = system: SW480; experiment: Induction of apoptosis in human SW480 cells assessed as early apoptotic cells at 8 uM incubated for 48 hrs by Annexin V-FITC/PI staining based flow cytometry (reference value: 1.87%); assay type: functional
[28] = system: SW480; experiment: Induction of apoptosis in human SW480 cells assessed as early apoptotic cells at 32 uM incubated for 48 hrs by Annexin V-FITC/PI staining based flow cytometry (reference value: 1.87%); assay type: functional
[29] = system: SW480; experiment: Induction of mitochondrial membrane potential loss in human SW480 cells assessed as cells with high MMP emitting red fluorescence at 2 uM incubated for 24 hrs by JC-1 staining based flow cytometry (reference value: 64.2%); assay type: functional
[30] = Half life in human liver microsomes at 0.1 uM preincubated for 10 mins followed by NADPH addition and measured up to 60 mins by LC-MS/MS analysis; assay type: ADME, Microsome; conditions: time 70 min
[31] = system: SW480; experiment: Induction of apoptosis in human SW480 cells assessed as necrotic cells at 4 uM incubated for 48 hrs by Annexin V-FITC/PI staining based flow cytometry (reference value: 2.9%); assay type: functional
[32] = system: SW480; experiment: Induction of mitochondrial membrane potential loss in human SW480 cells assessed as cells with low MMP emitting green fluorescence at 8 uM incubated for 24 hrs by JC-1 staining based flow cytometry (reference value: 17.96%); assay type: functional
[33] = system: SW480; experiment: Induction of apoptosis in human SW480 cells assessed as necrotic cells at 8 uM incubated for 48 hrs by Annexin V-FITC/PI staining based flow cytometry (reference value: 2.9%); assay type: functional
[34] = system: SW480; experiment: Induction of apoptosis in human SW480 cells assessed as late apoptotic cells at 32 uM incubated for 48 hrs by Annexin V-FITC/PI staining based flow cytometry (reference value: 4.67%); assay type: functional

CCCCCCCCCC(CCO)n1cnc2c(Cl)ncnc21 (racemic)
Activity [1]: Dose-Dependent Effect
viability at 8 µM [2]: 56.5%
survival at 336 h [3]: 100%
Activity [4]: 33.02%
Activity [5]: Active
Activity [6]: 20.5%
Activity [7]: 9.11%
viability at 4 µM [8]: 71.5%
inhibition (INH) [9]: 100%
survival at 336 h [10]: 20%
Activity [11]: 11.69%
Ratio IC50 [12]: 10
inhibition [13]: Active
Activity [14]: 28.88%
Activity [15]: Active
Activity [16]: 24.5%
inhibition (INH) [17]: 100%
Activity [18]: Active
Activity [19]: Active
survival at 336 h [20]: 0%
half-life at 0.1 µM [21]: 1 min
survival at 336 h [22]: 70%
Activity [23]: 31.56%
Activity [24]: 9.2%
Activity [25]: 11.01%
Activity [26]: 5.2%
Activity [27]: 11.03%
Activity [28]: 55.55%
Activity [29]: 47.58%
half-life at 0.1 µM [30]: 10.8 min
Activity [31]: 7.76%
Activity [32]: 36.6%
Activity [33]: 16.97%
Activity [34]: 13.76%
